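Five compound concentrations were applied to cells in 96-well plates for 48 hours; endpoints were derived by simple linear interpolation of the resulting dose-response curve. TGI marks complete inhibition of growth.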
Key:
Assay in all cases: DTP human tumour cell line panel, 48 h
[1] = test system: CCRF-CEM leukemia
[2] = test system: HCC-2998 colon
[3] = test system: HCT-15 colon
[4] = test system: HOP-92 NSCLC
[5] = test system: K-562 leukemia
[6] = test system: KM12 colon
[7] = test system: MDA-MB-231 breast
[8] = test system: MDA-MB-435
[9] = test system: OVCAR-4 ovarian
[10] = test system: TK-10 renal

| Structure (SMILES) | TGI [1] [µM] | TGI [2] [µM] | TGI [3] [µM] | TGI [4] [µM] | TGI [5] [µM] | TGI [6] [µM] | TGI [7] [µM] | TGI [8] [µM] | TGI [9] [µM] | TGI [10] [µM] |
| --- | --- | --- | --- | --- | --- | --- | --- | --- | --- | --- |
| CC(Oc1ccccc1Cl)C(=O)NN1C(=O)CSC1c1ccccc1 (stereo not given) | > 100 | > 100 | > 100 | > 100 | > 100 | > 100 | > 100 | > 100 | > 100 | > 100 |
| O=[N+]([O-])c1cccc(N=Nc2c(O)c(S(=O)(=O)O)cc3cc(S(=O)(=O)O)ccc23)c1 | > 100 | > 100 | > 100 | > 100 | > 100 | > 100 | > 100 | > 100 | > 100 | > 100 |
| CN(C)CCCNc1ccc2nnn3c4ccc(O)cc4c(=O)c1c23 | 38.2 | 15.2 | 19.7 | 20.7 | > 57.2 | 13.5 | 23.6 | 20.9 | 18.5 | 19.4 |
| Nc1ccc(S(=O)(=O)Nc2nc3ccccc3nc2N2CCCCCC2)cc1 | > 100 | 33.4 | 95.5 | 63.6 | 52 | > 100 | > 100 | 41.1 | 50.9 | > 100 |
| O=C(c1cccs1)N1CCN(C(=O)c2cccs2)C1=S | 6.87 | 22 | 17.7 | 20.7 | > 45.2 | 12.4 | 18.1 | 10.2 | 32.3 | 19 |
| CC(=O)Nc1ccc(OC/C(N)=N/NC(=O)c2ccncc2)cc1 | > 100 | > 100 | > 100 | > 100 | > 100 | > 100 | > 100 | > 100 | > 100 | > 100 |
| CCCCCCCCCCCCCCCCCCNc1nc(=O)n(C2CC(O)C(COP(=O)(O)O)O2)cc1F (stereo not given) | 81.2 | > 100 | > 100 | > 100 | > 100 | > 100 | > 100 | > 100 | > 100 | > 100 |
| C=C(C)[C@H]1C2=CC(C)=C(O2)[C@@H](O[C@@H]2c3oc(cc3C)[C@H](C(=C)C)[C@H]3C=C(CC[C@H]2C(=C)C)C(=O)O3)[C@H](C(=C)C)CCC2=C[C@H]1OC2=O | > 100 | > 100 | > 100 | > 100 | > 100 | > 100 | > 100 | > 100 | > 100 | > 100 |

From PubChem BioAssay (NCI)
